How the values were obtained:
Test in all cases: Bliss excess, mean over the matrix (fraction); higher = more synergy
[1] = test system: CAL-54 (Kidney Carcinoma)
Method in brief: (§1)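 Bliss excess equals the observed combination effect minus the expected value EA + EB − EA·EB, where EA and EB are the effects of each agent alone. Combination Emax is the second-highest inhibition within the matrix. Inhibition was scaled from CellTiter-Glo 2.0 luminescence, with 0 set by vehicle wells and 1 by blank wells, after 72 hours of two-drug dosing of cells plated in 1536-well plates.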

NCI-H2461 (Mesothelioma) = test system: NCI-H2461 (Mesothelioma)
Method in brief: as §1

[2] = test system: LU-139 (Small Cell Lung Carcinoma)
Method in brief: as §1

[3] = test system: CAL-51 (Breast Carcinoma)
Method in brief: as §1

[4] = test system: SK-OV-3 (Ovarian Carcinoma)
Method in brief: as §1

[5] = test system: SU-DHL-6 (B-Cell Non-Hodgkin's Lymphoma)
Method in brief: as §1

[6] = test system: 8305C (Thyroid Gland Carcinoma)
Method in brief: as §1

[7] = test system: SW626 (Colorectal Carcinoma)
Method in brief: as §1

[8] = test system: HCC-15 (Squamous Cell Lung Carcinoma)
Method in brief: as §1

[9] = test system: MHH-PREB-1 (B-Cell Non-Hodgkin's Lymphoma)
Method in brief: as §1

[10] = test system: OC-314 (Ovarian Carcinoma)
Method in brief: as §1

[11] = test system: RKO (Colorectal Carcinoma)
Method in brief: as §1

Mewo (Melanoma) = test system: Mewo (Melanoma)
Method in brief: as §1

[12] = test system: SW1271 (Small Cell Lung Carcinoma)
Method in brief: as §1

[13] = test system: KYSE-410 (Esophageal Squamous Cell Carcinoma)
Method in brief: as §1

NCI-H28 (Mesothelioma) = test system: NCI-H28 (Mesothelioma)
Method in brief: as §1

[14] = test system: SW1116 (Colorectal Carcinoma)
Method in brief: as §1

NCI-H2795 (Mesothelioma) = test system: NCI-H2795 (Mesothelioma)
Method in brief: as §1

[15] = test system: HDLM-2 (Hodgkin's Lymphoma)
Method in brief: as §1

[16] = test system: K5 (Thyroid Gland Carcinoma)
Method in brief: as §1

| Structure (SMILES) | Bliss excess [1] | Bliss excess (NCI-H2461 (Mesothelioma)) | Bliss excess [2] | Bliss excess [3] | Bliss excess [4] | Bliss excess [5] | Bliss excess [6] | Bliss excess [7] | Bliss excess [8] | Bliss excess [9] | Bliss excess [10] | Bliss excess [11] | Bliss excess (Mewo (Melanoma)) | Bliss excess [12] | Bliss excess [13] | Bliss excess (NCI-H28 (Mesothelioma)) | Bliss excess [14] | Bliss excess (NCI-H2795 (Mesothelioma)) | Bliss excess [15] | Bliss excess [16] |
| --- | --- | --- | --- | --- | --- | --- | --- | --- | --- | --- | --- | --- | --- | --- | --- | --- | --- | --- | --- | --- |
| CCc1c2c(nc3ccc(O)cc13)-c1cc3c(c(=O)n1C2)COC(=O)[C@]3(O)CC [SN-38] + CN(C)CCCOc1ccc(-c2ccc3ncc4c(c3c2)n(C2CCOCC2)c(=O)n4C)cn1 [AZD0156] (first compound max 0.3 µM, 7x7, partner max 1 µM) | 0.005 | -0.0236 | -0.118 | 0.0611 | -0.0132 | -0.0694 | 0.0088 | -0.0379 | 0.16 | 0.0408 | 0.0872 | 0.0263 | -0.0722 | 0.0025 | -0.0542 | -0.0839 | -0.0108 | 0.0334 | -0.0809 | -0.0797 |
| Cn1cnc2c(F)c(Nc3ccc(Br)cc3Cl)c(C(=O)NOCCO)cc21 [Selumetinib] + CC(C)n1c(=O)n(C)c2cnc3cc(F)c(-c4ccc(OCCCN5CCCCC5)nc4)cc3c21 [AZD1390] (first compound max 10 µM, 7x7, partner max 0.3 µM) | -0.0377 | -0.0377 | -0.0259 | -0.0271 | -0.0088 | -0.0323 | -0.057 | -0.0121 | 0.0148 | -0.0218 | -0.0357 | -0.0273 | -0.0086 | 0.0379 | -0.0327 | -0.0403 | -0.0094 | -0.0439 | -0.0509 | -0.021 |
| CN(C)CCCOc1ccc(-c2ccc3ncc4c(c3c2)n(C2CCOCC2)c(=O)n4C)cn1 [AZD0156] + O=C(c1cc(Cc2n[nH]c(=O)c3ccccc23)ccc1F)N1CCN(C(=O)C2CC2)CC1 [Olaparib] (first compound max 3 µM, partner max 3 µM) | 0.034 | -0.0194 | 0.0352 | 0.051 | -0.0179 | 0.125 | -0.014 | -0.0326 | 0.136 | 0.0175 | 0.145 | 0.0736 | -0.0711 | 0.0098 | 0.0007 | -0.0415 | -0.0431 | 0.0432 | 0.0319 | 0.0542 |
| COc1nnc2ccc(N3CCC(c4ccc(OCCN5CCN(C)C(=O)[C@H]5C)cc4)CC3)nn12 [AZD5153] + CC1(C)CCC(CN2CCN(c3ccc(C(=O)NS(=O)(=O)c4ccc(NCC5CCOCC5)c([N+](=O)[O-])c4)c(Oc4cnc5[nH]ccc5c4)c3)CC2)=C(c2ccc(Cl)cc2)C1 [Venetoclax] (first compound max 1 µM, 7x7, partner max 1 µM) | -0.0374 | -0.0438 | 0.0391 | -0.0513 | -0.0371 | 0.0401 | -0.0901 | -0.0676 | -0.0255 | -0.055 | -0.0149 | 0.0122 | -0.0605 | -0.108 | -0.0898 | 0.0174 | -0.036 | -0.041 | -0.0645 | -0.049 |
| CC1(C)CCC(CN2CCN(c3ccc(C(=O)NS(=O)(=O)c4ccc(NCC5CCOCC5)c([N+](=O)[O-])c4)c(Oc4cnc5[nH]ccc5c4)c3)CC2)=C(c2ccc(Cl)cc2)C1 [Venetoclax] + C[C@@H]1COCCN1C2=NC(=NC(=C2)C3(CC3)[S@](=N)(=O)C)C4=C5C=CNC5=NC=C4 [AZD6738] (first compound max 1 µM, 7x7, partner max 10 µM) | -0.0737 | -0.026 | -0.0111 | 0.005 | -0.012 | 0.0561 | -0.0471 | -0.0492 | -0.0296 | 0.0046 | -0.003 | -0.0796 | -0.0285 | -0.0497 | -0.0473 | -0.059 | -0.0234 | -0.0578 | 0.0068 | -0.0758 |
| NC1(C(=O)N[C@@H](CCO)c2ccc(Cl)cc2)CCN(c2ncnc3[nH]ccc23)CC1 [Capivasertib] + Cn1cnc2c(F)c(Nc3ccc(Br)cc3Cl)c(C(=O)NOCCO)cc21 [Selumetinib] (first compound max 10 µM, 7x7, partner max 10 µM) | 0.0079 | -0.0393 | -0.0165 | 0.0176 | -0.0629 | 0.0255 | -0.0212 | 0.0124 | 0.0366 | -0.0067 | 0.0668 | 0.0463 | 0.0069 | 0.0312 | 0.0521 | -0.0231 | 0.0203 | 0.0097 | -0.0118 | 0.0944 |
| CN(CCO)CC[C@H](CSc1ccccc1)Nc1ccc(S(=O)(=O)NC(=O)c2ccc(N3CCC([C@@H](O)c4ccccc4-c4ccc(Cl)cc4)CC3)cc2)cc1S(=O)(=O)C(F)(F)F [AZD4320] + CCN(CCO)CCCOc1ccc2c(Nc3cc(CC(=O)Nc4cccc(F)c4)[nH]n3)ncnc2c1 [AZD2811] (first compound max 1 µM, 7x7, partner max 1 µM) | -0.0406 | -0.0195 | 0.0775 | 0.0881 | -0.0522 | 0.0635 | 0.0076 | 0.0278 | -0.0091 | 0.0034 | 0.156 | -0.0162 | 0.0053 | -0.0428 | -0.0437 | -0.0045 | -0.0299 | 0.0386 | 0.0781 | -0.0283 |
| CC1(C)CCC(CN2CCN(c3ccc(C(=O)NS(=O)(=O)c4ccc(NCC5CCOCC5)c([N+](=O)[O-])c4)c(Oc4cnc5[nH]ccc5c4)c3)CC2)=C(c2ccc(Cl)cc2)C1 [Venetoclax] + CN(C)CCCOc1ccc(-c2ccc3ncc4c(c3c2)n(C2CCOCC2)c(=O)n4C)cn1 [AZD0156] (first compound max 1 µM, 7x7, partner max 1 µM) | -0.0085 | -0.0535 | 0.0014 | 0.0064 | -0.0637 | 0.036 | -0.0626 | -0.0381 | -0.0196 | 0.0029 | 0.008 | 0.0566 | -0.0483 | -0.0283 | -0.0377 | -0.0547 | -0.0409 | 0.0332 | -0.0015 | -0.0635 |
| NC1(C(=O)N[C@@H](CCO)c2ccc(Cl)cc2)CCN(c2ncnc3[nH]ccc23)CC1 [Capivasertib] + COc1nnc2ccc(N3CCC(c4ccc(OCCN5CCN(C)C(=O)[C@H]5C)cc4)CC3)nn12 [AZD5153] (first compound max 10 µM, 7x7, partner max 1 µM) | -0.0039 | -0.0007 | -0.0574 | 0.0957 | -0.0193 | -0.0424 | 0.014 | -0.0156 | 0.009 | -0.0154 | -0.0135 | 0.0048 | -0.0532 | 0.0529 | 0.0437 | -0.062 | -0.0236 | -0.0197 | -0.0507 | 0.0159 |
| C=CCn1c(=O)c2cnc(Nc3ccc(N4CCN(C)CC4)cc3)nc2n1-c1cccc(C(C)(C)O)n1 [AZD1775] + O=C(c1cc(Cc2n[nH]c(=O)c3ccccc23)ccc1F)N1CCN(C(=O)C2CC2)CC1 [Olaparib] (first compound max 1 µM, partner max 10 µM) | -0.0341 | -0.0561 | -0.0775 | -0.0122 | -0.0465 | -0.0222 | -0.0762 | -0.0526 | -0.0004 | -0.0311 | 0.0291 | -0.0119 | -0.0237 | -0.0488 | -0.04 | -0.0568 | -0.0069 | -0.0182 | -0.0536 | -0.0175 |
| CC(=O)c1c(C)c2cnc(Nc3ccc(N4CCNCC4)cn3)nc2n(C2CCCC2)c1=O [Palbociclib] + Cc1c2c(nn1C)CSCc1cc(n(C)n1)CSc1cc(c3ccccc3c1)OCCCc1c(C(=O)O)n(C)c3c-2c(Cl)ccc13 [AZD5991] (first compound max 10 µM, 7x7, partner max 1 µM) | -0.0781 | -0.056 | 0.0198 | 0.0124 | -0.0569 | 0.0709 | -0.0706 | -0.0211 | -0.0501 | -0.0405 | -0.023 | 0.0342 | -0.0291 | -0.0193 | -0.0657 | -0.0319 | -0.025 | 0.0419 | -0.072 | -0.046 |

Reference: the supplement of paper PMC11061612
